From patent publication US10407409B2, “6-(5-hydroxy-1H-pyrazol-1-yl)nicotinamide inhibitors of PHD” (Takeda Pharmaceutical Company Limited, priority 2013, dated 2019)

What was measured:
[1] = molecular target: PHD2 enzyme (residues 181-417) (Homo sapiens (Human), UniProt Q9GZT9); assay: Inhibition of PHD enzyme (LC/MS peptide hydroxylation assay); type: biochemical; details: PHD2 (residues 181-417) 5 nM, 60 min pre-incubation; -log(IC50), IC50 molar
Summary of the method: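 Hydroxylated peptide quantified by LC/MS after 60 min turnover of 1 uM biotinylated peptide with 2 uM 2-oxoglutarate and 1 mM ascorbate, stopped by excess tight-binding inhibitor. Beforehand, 5 nM enzyme and compound were preincubated 60 min at RT, pH 7.3 HEPES/KCl/TCEP/FeCl2/BSA buffer. Values as pIC50 (−log molar IC50).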

[2] = tested on: HIF1a protein in H9c2 rat cardiomyocytes; assay: Cell-based HIF-alpha stabilization assay (inhibition of PHD in cells); details: Rattus norvegicus, H9c2, 24 h, 24 hrs compound incubation, HIF1a protein by ELISA, read-out: Inhibition of PHD in cells (pEC50) (converted)
Summary of the method: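 HIF1a stabilization was measured by ELISA on lysates of H9c2 rat cardiomyocytes after 24 h exposure to 11 serial compound concentrations, expressed relative to the desferrioxamine maximum. Curve fits gave EC50. EC50pos denotes the concentration producing half the desferrioxamine maximal response.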

Chain of PHD2 enzyme (residues 181-417) (Q9GZT9 181-417): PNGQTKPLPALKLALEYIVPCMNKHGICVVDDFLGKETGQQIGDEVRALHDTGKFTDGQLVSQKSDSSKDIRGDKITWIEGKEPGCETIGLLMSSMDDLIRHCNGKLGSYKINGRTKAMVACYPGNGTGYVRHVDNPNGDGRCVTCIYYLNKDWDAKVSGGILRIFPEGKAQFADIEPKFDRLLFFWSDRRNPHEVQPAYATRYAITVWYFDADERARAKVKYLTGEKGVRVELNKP

| SMILES | PHD Inhibition (pIC50) [1] | EC50 [2] |
| --- | --- | --- |
| CCN1CCN(C(=O)c2ccc(-n3ncc(-c4ccc(C#N)c(F)c4C)c3O)nc2)C[C@H]1C [Example 338, (R)-4-(1-(5-(4-ethyl-3-methylpiperazine-1-carbonyl)pyridin-2-yl)-5-hydroxy-1H-pyrazol-4-yl)-2-fluoro-3-methylbenzonitrile] | 8.40 | 933 nM |
| CO[C@H]1CC[C@@H](NC(=O)c2ccc(-n3ncc(-c4ccc(C#N)cc4F)c3O)nc2)CC1 [Example 284, 6-(4-(4-cyano-2-fluorophenyl)-5-hydroxy-1H-pyrazol-1-yl)-N-((1 s,4s)-4-methoxycyclohexyl)nicotinamide] | 8.21 | 1290 nM |
| COc1cc(-c2cnn(-c3ccc(C(=O)NC4CCN(C)CC4)cn3)c2O)ccn1 [Example 33, 6-(5-hydroxy-4-(2-methoxypyridin-4-yl)-1H-pyrazol-1-yl)-N-(1-methylpiperidin-4-yl)nicotinamide] | 7.4 | 1170 nM |
| O=C(NCC1CCOCC1)c1ccc(-n2ncc(-n3ccc(=O)cc3)c2O)nc1 [Example 190, 6-(5-hydroxy-4-(4-oxopyridin-1(4H)-yl)-1H-pyrazol-1-yl)-N-((tetrahydro-2H-pyran-4-yl)methyl)nicotinamide] | 7 | 15800 nM |
| COCCCCNC(=O)c1ccc(-n2ncc(-c3ccc(C#N)cc3)c2O)nc1 [Example 235, 6-(4-(4-cyanophenyl)-5-hydroxy-1H-pyrazol-1-yl)-N-(4-methoxybutyl)nicotinamide] | 7.43 | 269 nM |
| CCOCCNC(=O)c1ccc(-n2ncc(-c3ccc(C#N)cc3)c2O)nc1 [Example 112, 6-(4-(4-cyanophenyl)-5-hydroxy-1H-pyrazol-1-yl)-N-(2-ethoxyethyl)nicotinamide] | 7.32 | 1380 nM |
| CN(C)CCNC(=O)c1ccc(-n2ncc(-c3ccc(C#N)cc3)c2O)nc1 [Example 268, 6-(4-(4-cyanophenyl)-5-hydroxy-1H-pyrazol-1-yl)-N-(2-(dimethylamino)ethyl)nicotinamide] | 6.32 | 1950 nM |
| Cc1cc(C#N)ccc1-c1cnn(-c2ccc(C(=O)N3CCN(C4CC4)CC3)cn2)c1O [Example 414, 4-(1-(5-(4-cyclopropylpiperazine-1-carbonyl)pyridin-2-yl)-5-hydroxy-1H-pyrazol-4-yl)-3-methylbenzonitrile] | 8.39 | 832 nM |
| CCOc1cc(-c2cnn(-c3ccc(C(=O)NCCCOC)cn3)c2O)ccn1 [Example 218, 6-(4-(2-ethoxypyridin-4-yl)-5-hydroxy-1H-pyrazol-1-yl)-N-(3-methoxypropyl)nicotinamide] | 7.9 | 4680 nM |
| COCCC1(NC(=O)c2ccc(-n3ncc(-c4ccc(C#N)cc4)c3O)nc2)CCCC1 [Example 354, 6-(4-(4-cyanophenyl)-5-hydroxy-1H-pyrazol-1-yl)-N-(1-(2-methoxyethyl)cyclopentyl)nicotinamide] | 8.36 | 1580 nM |
| COC1CCN(C(=O)c2ccc(-n3ncc(-c4ccc(C#N)c(F)c4C)c3O)nc2)CC1 [Example 316, 2-fluoro-4-(5-hydroxy-1-(5-(4-methoxypiperidine-1-carbonyl)pyridin-2-yl)-1H-pyrazol-4-yl)-3-methylbenzonitrile] | 8.31 | 1290 nM |
| O=C(NCc1ccccc1)c1ccc(-n2ncc(-n3ccc(=O)cc3)c2O)nc1 [Example 191, N-benzyl-6-(5-hydroxy-4-(4-oxopyridin-1(4H)-yl)-1H-pyrazol-1-yl)nicotinamide] | 7.19 | 6760 nM |
| CCCNC(=O)c1ccc(-n2ncc(-c3ccnc(OC)c3)c2O)nc1 [Example 8, 6-(5-hydroxy-4-(2-methoxypyridin-4-yl)-1H-pyrazol-1-yl)-N-propylnicotinamide] | 7.03 | 603 nM |
| CN1CCOC(CNC(=O)c2ccc(-n3ncc(-c4ccc(C#N)cc4)c3O)nc2)C1 (centres unmarked) [Example 111, 6-(4-(4-cyanophenyl)-5-hydroxy-1H-pyrazol-1-yl)-N-((4-methylmorpholin-2-yl)methyl)nicotinamide] | 7.8 | 2140 nM |
| Cc1cc(-n2ncc(-c3ccc(C#N)cc3)c2O)ncc1C(=O)N(C)C1CCN(C)CC1 [Example 431, 6-(4-(4-cyanophenyl)-5-hydroxy-1H-pyrazol-1-yl)-N,4-dimethyl-N-(1-methylpiperidin-4-yl)nicotinamide] | 7.31 | 2750 nM |
| N#Cc1ccc(-c2cnn(-c3ccc(C(=O)NCCCOCC4CC4)cn3)c2O)cc1 [Example 118, 6-(4-(4-cyanophenyl)-5-hydroxy-1H-pyrazol-1-yl)-N-(3-(cyclopropylmethoxy)propyl)nicotinamide] | 7.36 | 316 nM |
| COCCCNC(=O)c1ccc(-n2ncc(-c3ccc(C#N)cc3C3CC3)c2O)nc1 [Example 300, 6-(4-(4-cyano-2-cyclopropylphenyl)-5-hydroxy-1H-pyrazol-1-yl)-N-(3-methoxypropyl)nicotinamide] | 7.99 | 17.4 nM |
| N#Cc1ccc(-c2cnn(-c3ccc(C(=O)NCc4ccccc4)cn3)c2O)c(F)c1 [Example 220, N-benzyl-6-(4-(4-cyano-2-fluorophenyl)-5-hydroxy-1H-pyrazol-1-yl)nicotinamide] | 7.13 | 1070 nM |
| CC[C@H](C)NC(=O)c1ccc(-n2ncc(-c3ccnc(OC)c3)c2O)nc1 [Example 10, (S)—N-(sec-butyl)-6-(5-hydroxy-4-(2-methoxypyridin-4-yl)-1H-pyrazol-1-yl)nicotinamide] | 7.09 | 676 nM |
| Cc1c(-c2cnn(-c3ccc(C(=O)N4CCN(C(C)C)[C@H](C)C4)cn3)c2O)ccc(C#N)c1F [Example 337, (R)-2-fluoro-4-(5-hydroxy-1-(5-(4-isopropyl-3-methylpiperazine-1-carbonyl)pyridin-2-yl)-1H-pyrazol-4-yl)-3-methylbenzonitrile] | 8.36 | 1350 nM |
| Cc1cc(C#N)ccc1-c1cnn(-c2ccc(C(=O)N3CCN(CC(F)F)CC3)cn2)c1O [Example 311, 4-(1-(5-(4-(2,2-difluoroethyl)piperazine-1-carbonyl)pyridin-2-yl)-5-hydroxy-1H-pyrazol-4-yl)-3-methylbenzonitrile] | 8.51 | 1480 nM |

Further lines, with some results ahead:

| PHD Inhibition (pIC50) [1] | SMILES | EC50 [2] |
| --- | --- | --- |
| 7.04 | Cc1cc(C#N)ccc1-c1cnn(-c2ccc(C(=O)NC(C)C)cn2)c1O [Example 128, 6-(4-(4-cyano-2-methylphenyl)-5-hydroxy-1H-pyrazol-1-yl)-N-isopropylnicotinamide] | 145 nM |
| 8.4 | CNC(=O)c1ccc(-n2ncc(-c3ccc(C#N)cc3C)c2O)nc1 [Example 107, 6-(4-(4-cyano-2-methylphenyl)-5-hydroxy-1H-pyrazol-1-yl)-N-methylnicotinamide] | 129 nM |
| 7.23 | CC(C)(C)NC(=O)c1ccc(-n2ncc(-c3ccc(C#N)cc3)c2O)nc1 [Example 202, N-(tert-butyl)-6-(4-(4-cyanophenyl)-5-hydroxy-1H-pyrazol-1-yl)nicotinamide] | 724 nM |
| 8.2 | COC(C)CCNC(=O)c1ccc(-n2ncc(-c3ccc(C#N)cc3C)c2O)nc1 (centres unmarked) [Example 181, 6-(4-(4-cyano-2-methylphenyl)-5-hydroxy-1H-pyrazol-1-yl)-N-(3-methoxybutyl)nicotinamide] | 324 nM |
| 8.1 | Cc1cc(C#N)ccc1-c1cnn(-c2ccc(C(=O)NCC3CN(C)CCO3)cn2)c1O (centres unmarked) [Example 101, 6-(4-(4-cyano-2-methylphenyl)-5-hydroxy-1H-pyrazol-1-yl)-N-((4-methylmorpholin-2-yl)methyl)nicotinamide] | 158 nM |
| 6.95 | COCCCNC(=O)c1ccc(-n2ncc(-c3ccc(C#N)cc3OC)c2O)nc1 [Example 231, 6-(4-(4-cyano-2-methoxyphenyl)-5-hydroxy-1H-pyrazol-1-yl)-N-(3-methoxypropyl)nicotinamide] | 372 nM |
| 7.44 | CO[C@H]1CC[C@H](NC(=O)c2ccc(-n3ncc(-c4ccc(C#N)cc4C)c3O)nc2)CC1 [Example 68, 6-(4-(4-cyano-2-methylphenyl)-5-hydroxy-1H-pyrazol-1-yl)-N-((1r,4r)-4-methoxycyclohexyl)nicotinamide] | 50.1 nM |
| 7.17 | Cc1cc(C#N)ccc1-c1cnn(-c2ccc(C(=O)NCC3CCCO3)cn2)c1O (centres unmarked) [Example 133, 6-(4-(4-cyano-2-methylphenyl)-5-hydroxy-1H-pyrazol-1-yl)-N-((tetrahydrofuran-2-yl)methyl)nicotinamide] | 195 nM |
| 7.9 | Cc1cc(C#N)ccc1-c1cnn(-c2ccc(C(=O)NCCC3CCCN3C)cn2)c1O (centres unmarked) [Example 102, 6-(4-(4-cyano-2-methylphenyl)-5-hydroxy-1H-pyrazol-1-yl)-N-(2-(1-methylpyrrolidin-2-yl)ethyl)nicotinamide] | 58.9 nM |
| 7.13 | COCC(C)NC(=O)c1ccc(-n2ncc(-c3ccc(C#N)cc3C)c2O)nc1 (centres unmarked) [Example 136, 6-(4-(4-cyano-2-methylphenyl)-5-hydroxy-1H-pyrazol-1-yl)-N-(1-methoxypropan-2-yl)nicotinamide] | 112 nM |
